Reference: patent US7851501B2, “Aromatic nitrocatechol compounds and their use for modulating processes mediated by cell adhesion molecules” (Revotar Biopharmaceuticals AG, priority 2005, dated 2010)

Legend:
[1] = biological target: T1, human E-Selectin-IgG-chimera (Homo sapiens, UniProt P16581); experiment: Flow chamber assay, cell adhesion and rolling under flow conditions, E-selectin; type: cell-based; details: 125 μM compound; HL-60 cells; flow shear 1 dyne/cm^2; after 5 minutes continuous flow
Procedure: (§1) Values are given as normalized ratios of %-inhibition of compound x divided by %-inhibition of bimosiamose.
(§2) Flow Chamber Assay/Cell Adhesion and Rolling Under Flow Conditions
(§3) To assess the capability of compounds to inhibit cell binding under dynamic conditions resembling the flow in a blood vessel, flow chamber assays addressing/testing binding of HL-60 cells/various cell lines to P-selectin, L-selectin and E-selectin chimeric molecules are performed.
(§4) Cell attachment under flow conditions are determined using a parallel flow chamber system. A 35 mm polystyrene culture dish is coated for 1 hour at room temperature with coating buffer (50 mM tris-(hydroxymethyl)aminomethane buffer (Tris), 150 mM NaCl, 2 mM CaCl2; pH 7.4) containing human E- or P-selectin-IgG chimera at concentrations of 2.5 μg/ml or 10 μg/ml, respectively. After removal of the coating solution non specific binding sites are blocked for an additional hour with 1% BSA in coating buffer at room temperature. After washing with assay buffer (“Roswell Park Memorial Institute 1640” (RPMI 1640)+10 mM HEPES) the dish is fitted into a parallel plate laminar flow chamber (sold from Glycotech, Rockville, Md.) and mounted on an inverted phase-contrast microscope (sold from Olympus, Hamburg, Germany) equipped with a CCD camera (JVC) that is connected to a PC. Employing a peristaltic pump (sold from Ismatec, Wertheim-Mondfeld, Germany) the re-circulating system is equilibrated with assay buffer containing 125 μM compound or vehicle control (DMSO). Cells (1 million/ml) are added to the chamber and allowed to distribute for 2 minutes at a high flow rate. The flow rate is then decreased resulting in a calculated flow shear of 1 dyne/cm^2. Video sequences of 10 low power fields are digitally recorded after 5 minutes continuous flow. The percentage of inhibition is calculated from the mean number of cells per field that attached to the coated dish surface in the presence versus absence of compound […].

[2] = biological target: T2, human P-Selectin-IgG-chimera (Homo sapiens, UniProt P16109); experiment: Flow chamber assay, cell adhesion and rolling under flow conditions, P-selectin; type: cell-based; details: 125 μM compound; HL-60 cells; flow shear 1 dyne/cm^2; after 5 minutes continuous flow
Procedure: as §1, §2, §3, §4

[3] = biological target: T1, human E-Selectin-IgG-chimera; experiment: Sialyl Lewis x Tyrosine Sulfate Assay (sLex TSA), E-selectin; details: inhibition of binding of sLex-tyrosine sulfate polyacrylamide ligand complex
Procedure: (§5) Compounds of the present invention are assayed on a molecular level for their ability to inhibit the binding of P-, L-, or E-selectin chimeric molecules to sLe^x and tyrosinesulfate residues linked to a polymeric matrix as a PSGL-1 substitute. Selected IC50-values are determined.
Microtiter plates are coated overnight in carbonate buffer pH9.6 with goat anti human Fc mAB (10 μg/ml). After washing in assay buffer (25 mM 4-(2-hydroxyethyl)-1-piperazineethanesulfonic acid (HEPES), 150 mM NaCl, 1 mM CaCl2 pH7.4) and blocking (3% bovine serum albumin (BSA) in assay buffer) plates are incubated for 2 h at 37° C. with human P-Selectin-IgG-chimera (0.61 nM respectively 150 ng/mL) or human L-Selectin-IgG-chimera (0.61 nM respectively 89 ng/mL) or human E-Selectin-IgG-chimera (0.61 nM respectively 131 ng/mL). 5 μl of sLe^x-tyrosine sulfate polyacrylamide (1 mg/ml) carrying 15% sLe^x, 10% Tyrosine-sulfate and 5% biotin is complexed with […] Streptavidin-Peroxidase solution (1 mg/ml) and 25 μl assay buffer without CaCl2. For use in the assay, the ligand complex is diluted 1:10000 in assay buffer and further diluted 1:1 with varying amounts of compounds in assay buffer incl. 2% DMSO. […] Bound sLe^x-Tyrosine sulfate ligand complex is determined by measuring optical density at 450 nm vs. 620 nm in a Fusion alpha-FP reader (sold from Packard Bioscience, Dreieich, Germany).

[4] = biological target: T2, human P-Selectin-IgG-chimera; experiment: Sialyl Lewis x Tyrosine Sulfate Assay (sLex TSA), P-selectin; details: inhibition of binding of sLex-tyrosine sulfate polyacrylamide ligand complex
Procedure: as §5
(§6) Microtiter plates are coated overnight in carbonate buffer pH9.6 with goat anti human Fc mAB (10 μg/ml). After washing in assay buffer (25 mM 4-(2-hydroxyethyl)-1-piperazineethanesulfonic acid (HEPES), 150 mM NaCl, 1 mM CaCl2 pH7.4) and blocking (3% bovine serum albumin (BSA) in assay buffer) plates are incubated for 2 h at 37° C. with human P-Selectin-IgG-chimera (0.61 nM respectively 150 ng/mL) or human L-Selectin-IgG-chimera (0.61 nM respectively 89 ng/mL) or human E-Selectin-IgG-chimera (0.61 nM respectively 131 ng/mL). 5 μl of sLe^x-tyrosine sulfate polyacrylamide (1 mg/ml) carrying 15% sLe^x, 10% Tyrosine-sulfate and 5% biotin is complexed with […] Streptavidin-Peroxidase solution (1 mg/ml) and 25 μl assay buffer without CaCl2. For use in the assay, the ligand complex is diluted 1:10000 in assay buffer and further diluted 1:1 with varying amounts of compounds in assay buffer incl. 2% DMSO. This mixture is added to the wells precoated with E- or P-selectin. After incubation for 2 h at 37° C., wells are washed for six times with in assay buffer incl. 0.005% Polyoxyethylenesorbitan monolaurate (TWEEN 20), developed for 10-15 min with 20 μl 3,3′,5,5′-tetramethylbenzidine (TMB)/H2O2 substrate solution and stopped with 20 μl 1M H2SO4. Bound sLe^x-Tyrosine sulfate ligand complex is determined by measuring optical density at 450 nm vs. 620 nm in a Fusion alpha-FP reader (sold from Packard Bioscience, Dreieich, Germany).

[5] = biological target: human L-Selectin-IgG-chimera (Homo sapiens, UniProt P14151); experiment: Sialyl Lewis x Tyrosine Sulfate Assay (sLex TSA), L-selectin; details: inhibition of binding of sLex-tyrosine sulfate polyacrylamide ligand complex
Procedure: as §5, §6

T1 sequence (P16581 with tags, fused parts or gaps limits assumed): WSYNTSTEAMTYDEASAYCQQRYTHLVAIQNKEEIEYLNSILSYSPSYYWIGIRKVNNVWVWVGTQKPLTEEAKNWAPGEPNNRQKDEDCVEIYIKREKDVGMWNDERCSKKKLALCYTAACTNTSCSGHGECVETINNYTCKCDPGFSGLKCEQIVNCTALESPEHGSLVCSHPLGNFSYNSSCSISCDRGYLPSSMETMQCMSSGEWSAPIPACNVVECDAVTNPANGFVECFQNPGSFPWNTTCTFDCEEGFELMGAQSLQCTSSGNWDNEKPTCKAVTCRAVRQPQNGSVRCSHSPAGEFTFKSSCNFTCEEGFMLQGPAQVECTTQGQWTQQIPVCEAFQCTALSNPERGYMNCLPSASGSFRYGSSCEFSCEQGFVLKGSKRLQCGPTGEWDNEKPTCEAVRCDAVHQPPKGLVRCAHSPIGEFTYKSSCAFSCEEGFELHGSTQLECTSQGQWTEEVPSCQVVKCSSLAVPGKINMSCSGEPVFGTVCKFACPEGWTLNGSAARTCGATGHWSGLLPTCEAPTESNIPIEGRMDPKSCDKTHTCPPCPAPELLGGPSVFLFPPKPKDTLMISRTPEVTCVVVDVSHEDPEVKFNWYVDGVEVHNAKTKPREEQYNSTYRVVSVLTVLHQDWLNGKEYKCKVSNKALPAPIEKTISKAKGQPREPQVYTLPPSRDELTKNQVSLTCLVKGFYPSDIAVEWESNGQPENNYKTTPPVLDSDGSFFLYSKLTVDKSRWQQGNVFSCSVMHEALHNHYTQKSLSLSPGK
Sequence of human L-Selectin-IgG-chimera (P14151 with tags, fused parts or gaps limits assumed): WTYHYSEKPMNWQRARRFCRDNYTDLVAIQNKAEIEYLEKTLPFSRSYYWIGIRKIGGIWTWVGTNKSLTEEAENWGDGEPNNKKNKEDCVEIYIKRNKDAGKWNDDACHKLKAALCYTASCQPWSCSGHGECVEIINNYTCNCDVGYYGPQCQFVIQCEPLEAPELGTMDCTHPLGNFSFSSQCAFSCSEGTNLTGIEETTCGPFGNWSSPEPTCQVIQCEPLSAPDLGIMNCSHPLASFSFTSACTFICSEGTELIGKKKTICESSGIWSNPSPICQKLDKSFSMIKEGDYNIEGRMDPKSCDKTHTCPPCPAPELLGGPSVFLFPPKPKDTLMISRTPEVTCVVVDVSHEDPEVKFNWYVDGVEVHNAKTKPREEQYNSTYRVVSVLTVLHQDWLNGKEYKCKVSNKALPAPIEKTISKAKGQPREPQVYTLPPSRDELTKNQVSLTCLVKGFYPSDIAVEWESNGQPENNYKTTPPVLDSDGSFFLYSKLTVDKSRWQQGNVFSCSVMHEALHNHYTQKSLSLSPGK
T2 sequence (P16109 with tags, fused parts or gaps limits assumed): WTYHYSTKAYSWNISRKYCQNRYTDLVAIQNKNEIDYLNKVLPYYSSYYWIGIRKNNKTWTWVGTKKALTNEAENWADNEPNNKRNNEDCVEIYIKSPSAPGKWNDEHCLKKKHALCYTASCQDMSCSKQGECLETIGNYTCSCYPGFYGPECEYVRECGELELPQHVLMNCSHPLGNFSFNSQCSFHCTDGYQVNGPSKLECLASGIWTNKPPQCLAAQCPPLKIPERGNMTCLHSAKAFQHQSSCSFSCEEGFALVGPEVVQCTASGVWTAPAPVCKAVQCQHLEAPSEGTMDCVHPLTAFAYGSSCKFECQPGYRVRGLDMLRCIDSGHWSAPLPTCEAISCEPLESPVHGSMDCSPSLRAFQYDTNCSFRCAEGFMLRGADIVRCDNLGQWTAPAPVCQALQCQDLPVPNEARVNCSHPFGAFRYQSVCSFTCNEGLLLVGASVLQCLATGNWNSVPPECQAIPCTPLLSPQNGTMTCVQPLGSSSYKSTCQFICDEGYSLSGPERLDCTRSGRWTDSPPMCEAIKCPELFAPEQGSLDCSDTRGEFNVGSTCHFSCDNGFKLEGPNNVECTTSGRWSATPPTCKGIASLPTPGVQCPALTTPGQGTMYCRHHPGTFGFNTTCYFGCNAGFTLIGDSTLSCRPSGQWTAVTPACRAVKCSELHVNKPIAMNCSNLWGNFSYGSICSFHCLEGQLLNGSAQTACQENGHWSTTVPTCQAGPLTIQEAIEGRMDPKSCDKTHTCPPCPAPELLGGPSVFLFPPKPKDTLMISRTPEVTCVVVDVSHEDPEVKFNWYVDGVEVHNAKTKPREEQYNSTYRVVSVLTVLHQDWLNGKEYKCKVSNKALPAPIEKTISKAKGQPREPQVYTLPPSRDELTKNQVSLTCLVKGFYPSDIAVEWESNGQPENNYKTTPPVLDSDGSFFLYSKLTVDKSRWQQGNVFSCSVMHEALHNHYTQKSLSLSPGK

E-Selectin normalized ratio of %-inhibition of compound divided by %-inhibition of bimosiamose [1]	P-Selectin normalized ratio of %-inhibition of compound divided by %-inhibition of bimosiamose [2]	IC50 [3]	IC50 [4]	IC50 [5]	SMILES
1.37 Ratio	1.30 Ratio	–	–	–	Cc1oc(-c2ccc(NC(=O)c3cccc(-c4cc(O)c(O)cc4[N+](=O)[O-])c3)cc2)cc1C(=O)O [Compound 113, 2-Methyl-5-{4-[(2′-nitro-4′,5′-dihydroxy-biphenyl-3-carbonyl)-amino]-phenyl}-furan-3-carboxylic acid]
n.s.	0.83 Ratio	–	–	–	O=C(Nc1ccccc1)c1cccc(-c2cc(O)c(O)cc2[N+](=O)[O-])c1 [Compound 117, 4′,5′-Dihydroxy-2′-nitro-biphenyl-3-carboxylic acid phenylamide]
0.84 Ratio	1.19 Ratio	–	19.2 µM	39.2 µM	O=C(O)Cc1ccc(-c2ccccc2NC(=O)c2cccc(-c3cc(O)c(O)cc3[N+](=O)[O-])c2)s1 [Compound 118, (5-{2-[(4′,5′-Dihydroxy-2′-nitro-biphenyl-3-carbonyl)-amino]-phenyl}-thiophen-2-yl)-acetic acid]
0.86 Ratio	1.67 Ratio	272 µM	11 µM	17.1 µM	O=C(Nc1ccccc1-c1ccc(C(=O)O)s1)c1cccc(-c2cc(O)c(O)cc2[N+](=O)[O-])c1 [Compound 119, 5-{2-[(4′,5′-Dihydroxy-2′-nitro-biphenyl-3-carbonyl)-amino]-phenyl}-thiophene-2-carboxylic acid]

The remaining lines, values behind:

SMILES	E-Selectin normalized ratio of %-inhibition of compound divided by %-inhibition of bimosiamose [1]	P-Selectin normalized ratio of %-inhibition of compound divided by %-inhibition of bimosiamose [2]	IC50 [3]	IC50 [4]	IC50 [5]
O=C(O)Cc1ccc(-c2ccccc2NC(=O)Cc2cc(O)c(O)cc2[N+](=O)[O-])s1 [Compound 110, (5-{2-[2-(4,5-Dihydroxy-2-nitro-phenyl)-acetylamino]-phenyl}-thiophen-2-yl)-acetic acid]	1.00 Ratio	1.26 Ratio	–	–	–
O=C(O)Cc1ccc(-c2ccccc2NC(=O)c2cccc(-c3cc([N+](=O)[O-])cc(O)c3O)c2)s1 [Compound 116, (5-{2-[(2′,3′-Dihydroxy-5′-nitro-biphenyl-3-carbonyl)-amino]-phenyl}-thiophen-2-yl)-acetic acid]	1.23 Ratio	1.32 Ratio	308 µM	5.2 µM	8.7 µM
O=C(Nc1ccccc1-c1ccc(C(=O)O)s1)c1cccc(-c2cc([N+](=O)[O-])cc(O)c2O)c1 [Compound 120, 5-{2-[(2′-3′-Dihydroxy-5′-nitro-biphenyl-3-carbonyl)-amino]-phenyl}-thiophene-2-carboxylic acid]	1.01 Ratio	1.72 Ratio	–	4.6 µM	6.6 µM
O=C(O)Cc1ccc(-c2ccccc2NC(=O)Cc2cc(O)c(O)c([N+](=O)[O-])c2)s1 [Compound 121, (5-{2-[2-(3,4-Dihydroxy-5-nitro-phenyl)-acetylamino]-phenyl}-thiophen-2-yl)-acetic acid]	0.98 Ratio	0.89 Ratio	–	–	–
